Reference: US20170190671A1, “BIS(ARYL)CATECHOL DERIVATIVES AS HERBICIDES” (E I DU PONT DE NEMOURS AND COMPANY, priority 2014, published 2017)

Columns and labels:
Experiment in all cases: Test C preemergence
Type in all cases: in vivo
[1] = test system: oilseed rape (Brassica napus); settings: Brassica napus, pre-emergence, scale 0 to 100, read-out: Plant response rating, Oilseed Rape
Summary of the method: (§1)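 Greenhouse test; preemergence on seeded loam-sand soil or spray on 1- to 4-leaf plants; solvent + surfactant vehicle; 13-15 day hold; visual comparison with controls; 0 (no effect)-100 (complete control).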

[2] = test system: yellow nutsedge (Cyperus esculentus); settings: Cyperus, pre-emergence, 336 h, scale 0 to 100, read-out: Plant response rating, Nutsedge, Yellow
Summary of the method: as §1

[3] = test system: Italian ryegrass (Lolium multiflorum); settings: Lolium multiflorum, pre-emergence, 336 h, scale 0 to 100, read-out: Plant response rating, Ryegrass, Italian
Summary of the method: as §1

[4] = test system: winter wheat (Triticum aestivum); settings: Triticum aestivum, pre-emergence, 336 h, scale 0 to 100, read-out: Plant response rating, Wheat
Summary of the method: as §1

[5] = test system: soybean (Glycine max); settings: Glycine max, pre-emergence, scale 0 to 100, read-out: Plant response rating, Soybean
Summary of the method: as §1

[6] = test system: pigweed (Amaranthus retroflexus); settings: Amaranthus retroflexus, pre-emergence, 336 h, scale 0 to 100, read-out: Plant response rating, Pigweed
Summary of the method: as §1

[7] = test system: ragweed (common ragweed, Ambrosia elatior); settings: Ambrosia artemisiifolia, pre-emergence, 336 h, scale 0 to 100, read-out: Plant response rating, Ragweed
Summary of the method: as §1

[8] = test system: waterhemp (common waterhemp, Amaranthus rudis); settings: Amaranthus tuberculatus, pre-emergence, scale 0 to 100, read-out: Plant response rating, Waterhemp
Summary of the method: as §1

[9] = test system: morningglory (Ipomoea coccinea); settings: Ipomoea, pre-emergence, 336 h, scale 0 to 100, read-out: Plant response rating, Morningglory
Summary of the method: as §1

[10] = test system: corn (Zea mays); settings: Zea mays, pre-emergence, 336 h, scale 0 to 100
Summary of the method: as §1

[11] = test system: lambsquarters (Chenopodium album); settings: Chenopodium album, pre-emergence, 336 h, scale 0 to 100, read-out: Plant response rating, Lambsquarters
Summary of the method: as §1

[12] = test system: giant foxtail (Setaria faberii); settings: Setaria faberi, pre-emergence, 336 h, scale 0 to 100, read-out: Plant response rating, Foxtail, Giant
Summary of the method: as §1

[13] = test system: blackgrass (Alopecurus myosuroides); settings: Alopecurus myosuroides, pre-emergence, 336 h, scale 0 to 100, read-out: Plant response rating, Blackgrass
Summary of the method: as §1

[14] = test system: velvetleaf (Abutilon theophrasti); settings: Abutilon theophrasti, pre-emergence, scale 0 to 100, read-out: Plant response rating, Velvetleaf
Summary of the method: as §1

[15] = test system: large (Lg) crabgrass (Digitaria sanguinalis); settings: Digitaria sanguinalis, pre-emergence, 336 h, scale 0 to 100, read-out: Plant response rating, Crabgrass, Large
Summary of the method: as §1

Structure (SMILES): Fc1cccc(Oc2ncc(Cl)cn2)c1Oc1ncc(Cl)cn1 [Compound 21, 2,2′-[[3-fluoro-1,2-phenylene]bis(oxy)]bis[5-chloropyrimidine]]
- plant injury at 31 g/ha ([1]; 31 g ai/ha, preemergence): 100%
- plant injury at 62 g/ha ([1]; 62 g ai/ha, preemergence): 100%
- plant injury at 125 g/ha ([1]; 125 g ai/ha, preemergence): 100%
- plant injury at 16 g/ha ([1]; Preemergence, 16 g ai/ha): 98%
- pest or weed control at 31 g/ha ([2]; 31 g ai/ha, preemergence): 5%
- pest or weed control at 62 g/ha ([2]; 62 g ai/ha, preemergence): 35%
- pest or weed control at 125 g/ha ([2]; 125 g ai/ha, preemergence): 85%
- pest or weed control at 16 g/ha ([2]; Preemergence, 16 g ai/ha): 0%
- pest or weed control at 31 g/ha ([3]; 31 g ai/ha, preemergence): 50%
- pest or weed control at 62 g/ha ([3]; 62 g ai/ha, preemergence): 85%
- pest or weed control at 125 g/ha ([3]; 125 g ai/ha, preemergence): 90%
- pest or weed control at 16 g/ha ([3]; Preemergence, 16 g ai/ha): 10%
- plant injury at 31 g/ha ([4]; 31 g ai/ha, preemergence): 40%
- plant injury at 62 g/ha ([4]; 62 g ai/ha, preemergence): 50%
- plant injury at 125 g/ha ([4]; 125 g ai/ha, preemergence): 90%
- plant injury at 16 g/ha ([4]; Preemergence, 16 g ai/ha): 0%
- plant injury at 31 g/ha ([5]; 31 g ai/ha, preemergence): 90%
- plant injury at 62 g/ha ([5]; 62 g ai/ha, preemergence): 95%
- plant injury at 125 g/ha ([5]; 125 g ai/ha, preemergence): 98%
- plant injury at 16 g/ha ([5]; Preemergence, 16 g ai/ha): 85%
- pest or weed control at 31 g/ha ([6]; 31 g ai/ha, preemergence): 100%
- pest or weed control at 62 g/ha ([6]; 62 g ai/ha, preemergence): 100%
- pest or weed control at 125 g/ha ([6]; 125 g ai/ha, preemergence): 100%
- pest or weed control at 16 g/ha ([6]; Preemergence, 16 g ai/ha): 100%
- pest or weed control at 31 g/ha ([7]; 31 g ai/ha, preemergence): 85%
- pest or weed control at 62 g/ha ([7]; 62 g ai/ha, preemergence): 85%
- pest or weed control at 125 g/ha ([7]; 125 g ai/ha, preemergence): 85%
- pest or weed control at 16 g/ha ([7]; Preemergence, 16 g ai/ha): 65%
- pest or weed control at 31 g/ha ([8]; 31 g ai/ha, preemergence): 100%
- pest or weed control at 62 g/ha ([8]; 62 g ai/ha, preemergence): 100%
- pest or weed control at 125 g/ha ([8]; 125 g ai/ha, preemergence): 100%
- pest or weed control at 16 g/ha ([8]; Preemergence, 16 g ai/ha): 100%
- pest or weed control at 31 g/ha ([9]; 31 g ai/ha, preemergence): 80%
- pest or weed control at 62 g/ha ([9]; 62 g ai/ha, preemergence): 85%
- pest or weed control at 125 g/ha ([9]; 125 g ai/ha, preemergence): 98%
- pest or weed control at 16 g/ha ([9]; Preemergence, 16 g ai/ha): 70%
- Corn plant response rating (crop injury, 0 = no effect, 100 = complete kill) at 31 g/ha ([10]; 31 g ai/ha, preemergence): 25%
- Corn plant response rating (crop injury, 0 = no effect, 100 = complete kill) at 62 g/ha ([10]; 62 g ai/ha, preemergence): 45%
- Corn plant response rating (crop injury, 0 = no effect, 100 = complete kill) at 125 g/ha ([10]; 125 g ai/ha, preemergence): 98%
- Corn plant response rating (crop injury, 0 = no effect, 100 = complete kill) at 16 g/ha ([10]; Preemergence, 16 g ai/ha): 5%
- pest or weed control at 31 g/ha ([11]; 31 g ai/ha, preemergence): 100%
- pest or weed control at 62 g/ha ([11]; 62 g ai/ha, preemergence): 100%
- pest or weed control at 125 g/ha ([11]; 125 g ai/ha, preemergence): 98%
- pest or weed control at 16 g/ha ([11]; Preemergence, 16 g ai/ha): 100%
- pest or weed control at 31 g/ha ([12]; 31 g ai/ha, preemergence): 100%
- pest or weed control at 62 g/ha ([12]; 62 g ai/ha, preemergence): 100%
- pest or weed control at 125 g/ha ([12]; 125 g ai/ha, preemergence): 100%
- pest or weed control at 16 g/ha ([12]; Preemergence, 16 g ai/ha): 90%
- pest or weed control at 31 g/ha ([13]; 31 g ai/ha, preemergence): 30%
- pest or weed control at 62 g/ha ([13]; 62 g ai/ha, preemergence): 90%
- pest or weed control at 125 g/ha ([13]; 125 g ai/ha, preemergence): 90%
- pest or weed control at 16 g/ha ([13]; Preemergence, 16 g ai/ha): 30%
- pest or weed control at 31 g/ha ([14]; 31 g ai/ha, preemergence): 100%
- pest or weed control at 62 g/ha ([14]; 62 g ai/ha, preemergence): 100%
- pest or weed control at 125 g/ha ([14]; 125 g ai/ha, preemergence): 100%
- pest or weed control at 16 g/ha ([14]; Preemergence, 16 g ai/ha): 100%
- pest or weed control at 31 g/ha ([15]; 31 g ai/ha, preemergence): 100%
- pest or weed control at 62 g/ha ([15]; 62 g ai/ha, preemergence): 100%
- pest or weed control at 125 g/ha ([15]; 125 g ai/ha, preemergence): 100%
- pest or weed control at 16 g/ha ([15]; Preemergence, 16 g ai/ha): 98%
